# Measured values: patent US20240173419A1, “CDK2 DEGRADERS AND USES THEREOF” (Kymera Therapeutics, Inc., priority 2022, published 2024)
# Biological target: T1, CDK2 (Homo sapiens, UniProt P24941)
# T1 construct: endogenous in cells; host or cells: MKN1 cells
# Assay: CDK2 degradation in MKN1 cells (AlphaLISA)
# Type: cell-based
# Parameters: key to CDK2 degradation 14 h: Mean external-Abs DC50 (nM): A (<100 nM); B (≥100-500 nM); C (>500-1000 nM); D (>1000 nM); E (not achieved)
# Settings: 14 h incubation; for DC50: read-out: CDK2 degradation 14 h: Mean external-Abs DC50
# Procedure, shortened: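 MKN1 cells (2e4/well) treated 14 h at 37° C with 11-point 1:5 dilutions (0.001 nM-10 μM, 0.1% DMSO). CDK2 in lysates quantified by AlphaLISA, no-cell background subtracted; DC50 from four-parameter logistic fit.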
SMILES,CDK2 degradation 14 h: Average Dmax %,DC50 [nM],CDK2 degradation 14 h: Mean external-Abs DC50 (nM)
O=C1CCC(c2ccc(N3CCN(C[C@H]4CC[C@H](NS(=O)(=O)c5ccc(Nc6ncc(C(F)(F)F)c(-c7cnn(C8CCOCC8)c7)n6)c(F)c5)CC4)CC3)cc2Cl)C(=O)N1 (some centres unmarked) [I-818],A (A (>75% o)),< 100,–
Cc1cc(S(=O)(=O)C2CC3(CCN(CC4CCN(c5cccc6c5n(C)c(=O)n6C5CCC(=O)NC5=O)CC4)CC3)C2)ccc1Nc1ncc(C(F)(F)F)c(N2CCCC(C)(O)C2)n1 (centres unmarked) [I-819],B (B (>50% -75%)),500 to 1000,–
Cc1cc(S(=O)(=O)N2CCC(CN(C)C3CCN(c4cccc5c4n(C)c(=O)n5C4CCC(=O)NC4=O)CC3F)CC2)ccc1Nc1ncc2cc(Cl)c(=O)n(C3CCCC3)c2n1 (centres unmarked) [I-823],A (A (>75% o)),< 100,–
Cc1cc(S(=O)(=O)N2CC3(CCC(CN4CCN(c5ccc6c(c5F)n(C)c(=O)n6C5CCC(=O)NC5=O)CC4)CC3)C2)ccc1Nc1ncc2cc(Cl)c(=O)n(C3CCCC3)c2n1 (centres unmarked) [I-824],D (D (<25%)),–,E
Cc1cc(S(=O)(=O)N[C@@H](C)CO[C@H]2CC[C@H](CN3CCN(c4ccc5c(c4F)n(C)c(=O)n5C4CCC(=O)NC4=O)CC3)CC2)ccc1Nc1ncc2ccc(=O)n(C3CCCC3)c2n1 (some centres unmarked) [I-828],A (A (>75% o)),< 100,–
Cc1cc(S(=O)(=O)NC2CC(N3CCN(CC4CCN(c5ccc6c(c5F)n(C)c(=O)n6C5CCC(=O)NC5=O)CC4)CC3)C2)ccc1Nc1ncc(C(F)(F)F)c(N2CCCC(C)(O)C2)n1 (centres unmarked) [I-831],A (A (>75% o)),< 100,–
Cc1cc(S(=O)(=O)NC2CC(N3CCN(CC4CCN(c5ccc6c(c5F)n(C)c(=O)n6C5CCC(=O)NC5=O)CC4)CC3)C2)ccc1Nc1ncc2cc(Cl)c(=O)n(C3CCCC3)c2n1 (centres unmarked) [I-832],A (A (>75% o)),< 100,–
Cc1cc(S(=O)(=O)N2CC3(CCN(CC4CCN(c5ccc6c(c5F)n(C)c(=O)n6C5CCC(=O)NC5=O)CC4)CC3(F)F)C2)ccc1Nc1ncc2ccc(=O)n(C3CCCC3)c2n1 (centres unmarked) [I-836],B (B (>50% -75%)),100 to 500,–
Cc1cc(S(=O)(=O)C2CC3(CCN(CC4CCN(c5ccc6c(c5F)n(C)c(=O)n6C5CCC(=O)NC5=O)CC4)CC3)C2)ccc1Nc1ncc2cc(Cl)c(=O)n(C(C)C(C)(C)O)c2n1 (centres unmarked) [I-837],D (D (<25%)),> 1000,–
Cc1cc(S(=O)(=O)C2CC3(CCN(CC4CCN(c5ccc6c(c5F)n(C)c(=O)n6C5CCC(=O)NC5=O)CC4)CC3)C2)ccc1Nc1ncc(C2CC2)c(N2CCCC(C)(O)C2)n1 (centres unmarked) [I-839],D (D (<25%)),> 1000,–
Cc1cc(S(=O)(=O)C2CC3(CCN(CC4CCN(c5ccc6c(c5F)n(C)c(=O)n6C5CCC(=O)NC5=O)CC4)CC3)C2)ccc1Nc1ncc(C(F)(F)F)c(N2CCC(C(C)(C)O)C2)n1 (centres unmarked) [I-840],B (B (>50% -75%)),< 100,–
Cc1cc(S(=O)(=O)C2CC3(CCN(CC4CCN(c5cccc6c5n(C)c(=O)n6C5CCC(=O)NC5=O)CC4)CC3)C2)ccc1Nc1ncc(C(F)(F)F)c(N2CCC(C(C)(C)O)C2)n1 (centres unmarked) [I-842],A (A (>75% o)),< 100,–
Cc1cc(S(=O)(=O)NC(C)COC2CCC(CN3CCN(c4ccc5c(c4F)n(C)c(=O)n5C4CCC(=O)NC4=O)CC3)CC2)ccc1Nc1ncc2cc(Cl)c(=O)n(C(C)C(C)(C)O)c2n1 (centres unmarked) [I-843],D (D (<25%)),> 1000,–
Cc1cc(S(=O)(=O)NC(C)COC2CCC(CN3CCN(c4ccc5c(c4F)n(C)c(=O)n5C4CCC(=O)NC4=O)CC3)CC2)ccc1Nc1ncc(C(F)(F)F)c(N2CCCC(C)(O)C2)n1 (centres unmarked) [I-844],A (A (>75% o)),< 100,–
Cc1cc(S(=O)(=O)NC(C)COC2CCC(CN3CCN(c4ccc5c(c4F)n(C)c(=O)n5C4CCC(=O)NC4=O)CC3)CC2)ccc1Nc1ncc(C(F)(F)F)c(N2CCCC(C)(O)C2)n1 (centres unmarked) [I-846],A (A (>75% o)),< 100,–
Cc1cc(S(=O)(=O)C2CC3(CCN(CC4CCN(c5ccc6c(c5F)n(C)c(=O)n6C5CCC(=O)NC5=O)CC4)CC3)C2)ccc1Nc1ncc(C(F)(F)F)c(N2CCC(C)C(C)(O)C2)n1 (centres unmarked) [I-849],B (B (>50% -75%)),< 100,–
Cc1cc(S(=O)(=O)C2CC3(CCN(CCOC4CN(c5ccc6c(c5F)n(C)c(=O)n6C5CCC(=O)NC5=O)C4)CC3)C2)ccc1Nc1ncc(C(F)(F)F)c(N2CCCC(C)(O)C2)n1 (centres unmarked) [I-853],B (B (>50% -75%)),100 to 500,–
Cc1cc(S(=O)(=O)C2CC3(CCN(CCOC4CN(c5cccc6c5n(C)c(=O)n6C5CCC(=O)NC5=O)C4)CC3)C2)ccc1Nc1ncc(C(F)(F)F)c(N2CCCC(C)(O)C2)n1 (centres unmarked) [I-854],B (B (>50% -75%)),100 to 500,–
COCc1cnc(Nc2ccc(S(=O)(=O)C3CC4(CCN(CC5CCN(c6ccc7c(c6F)n(C)c(=O)n7C6CCC(=O)NC6=O)CC5)CC4)C3)cc2C)nc1N1CCCC(C)(O)C1 (centres unmarked) [I-856],D (D (<25%)),> 1000,–
Cc1cc(S(=O)(=O)NC(C)COC2CCC(CN3CCN(c4ccc5c(c4F)n(C)c(=O)n5C4CCC(=O)NC4=O)CC3)CC2)ccc1Nc1ncc(C(F)(F)F)c(N2CCC(C(C)(C)O)C2)n1 (centres unmarked) [I-857],A (A (>75% o)),< 100,–

# Further lines, results first:
CDK2 degradation 14 h: Average Dmax %,DC50 [nM],CDK2 degradation 14 h: Mean external-Abs DC50 (nM),SMILES
A (A (>75% o)),< 100,–,COc1cc(N2CCN(CC3CCC(NS(=O)(=O)c4ccc(Nc5ncc(C(F)(F)F)c(N6CCCC(C)(O)C6)n5)c(C)c4)CC3)CC2)c(F)cc1NC1CCC(=O)NC1=O (centres unmarked) [I-816]
A (A (>75% o)),< 100,–,Cc1cc(S(=O)(=O)NC2CCC(CN3CCN(c4ccc(NC5CCC(=O)NC5=O)cc4F)CC3)CC2)ccc1Nc1ncc(C(F)(F)F)c(N2CCCC(C)(O)C2)n1 (centres unmarked) [I-822]
D (D (<25%)),> 1000,–,Cc1cc(S(=O)(=O)C2CC3(CCN(CC4CCN(c5ccc6c(c5F)n(C)c(=O)n6C5CCC(=O)NC5=O)CC4)CC3)C2)ccc1Nc1cc2cnc(Cl)cc2n(C2CCCC2)c1=O (centres unmarked) [I-825]
B (B (>50% -75%)),< 100,–,Cc1cc(S(=O)(=O)C2CC3(CCN(CCN4CCN(c5ccc6c(c5F)n(C)c(=O)n6C5CCC(=O)NC5=O)CC4)CC3)C2)ccc1Nc1ncc2cc(Cl)c(=O)n(C3CCCC3)c2n1 (centres unmarked) [I-826]
A (A (>75% o)),< 100,–,Cc1cc(S(=O)(=O)N[C@H](C)CO[C@H]2CC[C@H](CN3CCN(c4ccc5c(c4F)n(C)c(=O)n5C4CCC(=O)NC4=O)CC3)CC2)ccc1Nc1ncc2ccc(=O)n(C3CCCC3)c2n1 (some centres unmarked) [I-827]
D (D (<25%)),–,E,Cc1cc(S(=O)(=O)N2CCC(N3CCC(F)(CN(C)c4ccc5c(c4F)n(C)c(=O)n5C4CCC(=O)NC4=O)CC3)CC2)ccc1Nc1ncc2ccc(=O)n(C3CCCC3)c2n1 (centres unmarked) [I-829]
A (A (>75% o)),< 100,–,Cc1cc(S(=O)(=O)NC2CC(N3CCN(CC4CCN(c5ccc6c(c5F)n(C)c(=O)n6C5CCC(=O)NC5=O)CC4)CC3)C2)ccc1Nc1ncc(C(F)(F)F)c(N2CCCC(C)(O)C2)n1 (centres unmarked) [I-830]
A (A (>75% o)),< 100,–,Cc1cc(S(=O)(=O)NC2CC(N3CCN(CC4CCN(c5cccc6c5n(C)c(=O)n6C5CCC(=O)NC5=O)CC4)CC3)C2)ccc1Nc1ncc(C(F)(F)F)c(N2CCCC(C)(O)C2)n1 (centres unmarked) [I-834]
D (D (<25%)),> 1000,–,Cc1cc(S(=O)(=O)C2CC3(CCN(CC4CCN(c5ccc6c(c5F)n(C)c(=O)n6C5CCC(=O)NC5=O)CC4)CC3)C2)ccc1Nc1nc(N2CCCC(C)(O)C2)c2c(ccn2C)n1 (centres unmarked) [I-835]
D (D (<25%)),> 1000,–,Cc1cc(S(=O)(=O)C2CC3(CCN(CC4CCN(c5cccc6c5n(C)c(=O)n6C5CCC(=O)NC5=O)CC4)CC3)C2)ccc1Nc1ncc2cc(Cl)c(=O)n(C(C)C(C)(C)O)c2n1 (centres unmarked) [I-838]
A (A (>75% o)),< 100,–,Cc1cc(S(=O)(=O)C2CC3(CCN(CC4CCN(c5cccc6c5n(C)c(=O)n6C5CCC(=O)NC5=O)CC4)CC3)C2)ccc1Nc1ncc(C(F)(F)F)c(N2CCC(C(C)(C)O)C2)n1 (centres unmarked) [I-841]
B (B (>50% -75%)),100 to 500,–,Cc1cc(S(=O)(=O)NC(C)COC2CCC(CN3CCN(c4ccc5c(c4F)n(C)c(=O)n5C4CCC(=O)NC4=O)CC3)CC2)ccc1Nc1ncc(C(F)(F)F)c(C2CCC(C)(O)CC2)n1 (centres unmarked) [I-845]
A (A (>75% o)),< 100,–,Cc1cc(S(=O)(=O)NC2CC(N3CCN(CC4CN(c5cccc6c5n(C)c(=O)n6C5CCC(=O)NC5=O)C4)CC3)C2)ccc1Nc1ncc(C(F)(F)F)c(C2CCC(C)(O)CC2)n1 (centres unmarked) [I-847]
A (A (>75% o)),< 100,–,Cc1cc(S(=O)(=O)NC(C)COC2CCC(CN3CC(c4ccc5c(c4F)n(C)c(=O)n5C4CCC(=O)NC4=O)C3)CC2)ccc1Nc1ncc(C(F)(F)F)c(N2CCCC(C)(O)C2)n1 (centres unmarked) [I-848]
B (B (>50% -75%)),< 100,–,Cc1cc(S(=O)(=O)NC(C)COC2CCC(CN3CC(c4cccc5c4n(C)c(=O)n5C4CCC(=O)NC4=O)C3)CC2)ccc1Nc1ncc(C(F)(F)F)c(N2CCCC(C)(O)C2)n1 (centres unmarked) [I-850]
A (A (>75% o)),< 100,–,Cc1cc(S(=O)(=O)NC(C)COC2CCC(CN3CCN(c4cccc5c4n(C)c(=O)n5C4CCC(=O)NC4=O)CC3)CC2)ccc1Nc1ncc(C(F)(F)F)c(N2CCCC(C)(O)C2)n1 (centres unmarked) [I-851]
B (B (>50% -75%)),< 100,–,Cn1c(=O)n(C2CCC(=O)NC2=O)c2ccc(N3CCC(CN4CCC5(CC4)CC(S(=O)(=O)c4ccc(Nc6ncc(C(F)(F)F)c(N7CCCC(C)(O)C7)n6)c(Cl)c4)C5)CC3)c(F)c21 (centres unmarked) [I-855]
